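Cultured in 96-well plates, cells were exposed to test compound for 48 hours across five concentrations. TGI: total growth inhibition.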 Where a SMILES comes first, the peptide text is derived from it. [ ]: non-standard residue; d: D form. The star is where a group is joined. Phe(2-OMe) = COc1ccccc1C[CH](N)C(=O)O; Cbz = O=C(OCc1ccccc1)*; OBn = c1ccc(CO*)cc1
Legend:
Experiment in all cases: NCI-60 cell line screen, 48 h
IGROV1 ovarian = system: IGROV1 ovarian
SN12C renal = system: SN12C renal
MOLT-4 leukemia = system: MOLT-4 leukemia
SK-OV-3 ovarian = system: SK-OV-3 ovarian
UACC-62 melanoma = system: UACC-62 melanoma
M14 melanoma = system: M14 melanoma
NCI-H23 lung = system: NCI-H23 lung
SK-MEL-2 melanoma = system: SK-MEL-2 melanoma
MDA-N = system: MDA-N
CCRF-CEM leukemia = system: CCRF-CEM leukemia
HOP-92 NSCLC = system: HOP-92 NSCLC
COLO 205 colon = system: COLO 205 colon
LOX IMVI melanoma = system: LOX IMVI melanoma
TK-10 renal = system: TK-10 renal
RXF 393 renal = system: RXF 393 renal
SR leukemia = system: SR leukemia
NCI-H522 lung = system: NCI-H522 lung
HS 578T breast = system: HS 578T breast
DU-145 prostate = system: DU-145 prostate
U251 CNS = system: U251 CNS
NCI-H460 lung = system: NCI-H460 lung
BT-549 breast = system: BT-549 breast
UACC-257 melanoma = system: UACC-257 melanoma
A549 NSCLC = system: A549 NSCLC
OVCAR-8 ovarian = system: OVCAR-8 ovarian
MDA-MB-231 breast = system: MDA-MB-231 breast
PC-3 prostate = system: PC-3 prostate
RPMI-8226 leukemia = system: RPMI-8226 leukemia
OVCAR-5 ovarian = system: OVCAR-5 ovarian
786-0 renal = system: 786-0 renal
UO-31 renal = system: UO-31 renal
SF-268 CNS = system: SF-268 CNS
NCI-H226 lung = system: NCI-H226 lung
ACHN renal = system: ACHN renal
SF-539 CNS = system: SF-539 CNS
HL-60(TB) leukemia = system: HL-60(TB) leukemia
HCT-116 colon = system: HCT-116 colon
MALME-3M melanoma = system: MALME-3M melanoma
HCT-15 colon = system: HCT-15 colon
SF-295 CNS = system: SF-295 CNS
HT29 colon = system: HT29 colon
EKVX NSCLC = system: EKVX NSCLC
OVCAR-3 ovarian = system: OVCAR-3 ovarian
SNB-19 CNS = system: SNB-19 CNS
MDA-MB-435 = system: MDA-MB-435
NCI/ADR-RES ovarian = system: NCI/ADR-RES ovarian
CAKI-1 renal = system: CAKI-1 renal
SW-620 colon = system: SW-620 colon
SK-MEL-5 melanoma = system: SK-MEL-5 melanoma
MCF7 breast = system: MCF7 breast
KM12 colon = system: KM12 colon
A498 renal = system: A498 renal
SNB-75 CNS = system: SNB-75 CNS
SK-MEL-28 melanoma = system: SK-MEL-28 melanoma
K-562 leukemia = system: K-562 leukemia
HOP-62 NSCLC = system: HOP-62 NSCLC
HCC-2998 colon = system: HCC-2998 colon
OVCAR-4 ovarian = system: OVCAR-4 ovarian

## O=Cc1cn(CCCCCn2cc(C=O)c3ccccc32)c2ccccc12
IGROV1 ovarian
  TGI: > 100 µM
SN12C renal
  TGI: > 100 µM
MOLT-4 leukemia
  TGI: > 100 µM
SK-OV-3 ovarian
  TGI: > 100 µM
UACC-62 melanoma
  TGI: > 100 µM
M14 melanoma
  TGI: > 100 µM
NCI-H23 lung
  TGI: > 100 µM
SK-MEL-2 melanoma
  TGI: > 100 µM
MDA-N
  TGI: > 100 µM
CCRF-CEM leukemia
  TGI: > 100 µM
HOP-92 NSCLC
  TGI: > 100 µM
COLO 205 colon
  TGI: > 100 µM
LOX IMVI melanoma
  TGI: > 100 µM
TK-10 renal
  TGI: > 100 µM
RXF 393 renal
  TGI: > 100 µM
SR leukemia
  TGI: > 100 µM
NCI-H522 lung
  TGI: > 100 µM
HS 578T breast
  TGI: 62.2 µM
DU-145 prostate
  TGI: > 100 µM
U251 CNS
  TGI: > 100 µM
NCI-H460 lung
  TGI: 11.4 µM
BT-549 breast
  TGI: > 100 µM
UACC-257 melanoma
  TGI: > 100 µM
A549 NSCLC
  TGI: > 100 µM
OVCAR-8 ovarian
  TGI: > 100 µM
MDA-MB-231 breast
  TGI: > 100 µM
PC-3 prostate
  TGI: > 100 µM
RPMI-8226 leukemia
  TGI: > 100 µM
OVCAR-5 ovarian
  TGI: 6.5 µM
786-0 renal
  TGI: > 100 µM
UO-31 renal
  TGI: > 100 µM
SF-268 CNS
  TGI: 72.6 µM
NCI-H226 lung
  TGI: > 100 µM
ACHN renal
  TGI: > 100 µM
SF-539 CNS
  TGI: > 100 µM
HL-60(TB) leukemia
  TGI: > 100 µM
HCT-116 colon
  TGI: > 100 µM
MALME-3M melanoma
  TGI: > 100 µM
HCT-15 colon
  TGI: > 100 µM
SF-295 CNS
  TGI: > 100 µM
HT29 colon
  TGI: > 100 µM
EKVX NSCLC
  TGI: > 100 µM
OVCAR-3 ovarian
  TGI: > 100 µM
SNB-19 CNS
  TGI: > 100 µM
MDA-MB-435
  TGI: > 100 µM
NCI/ADR-RES ovarian
  TGI: > 100 µM
CAKI-1 renal
  TGI: > 100 µM
SW-620 colon
  TGI: > 100 µM
SK-MEL-5 melanoma
  TGI: > 100 µM

## COC(=O)C(Cc1ccccc1OC)NC(=O)C(CC(=O)OCc1ccccc1)NC(=O)OCc1ccccc1 (stereo not given) (Cbz-Asp(OBn)-[Phe(2-OMe)]-OMe; configuration not given here)
IGROV1 ovarian
  TGI: > 100 µM
MOLT-4 leukemia
  TGI: > 100 µM
UACC-62 melanoma
  TGI: > 100 µM
MCF7 breast
  TGI: > 100 µM
M14 melanoma
  TGI: > 100 µM
NCI-H23 lung
  TGI: > 100 µM
SK-MEL-2 melanoma
  TGI: > 100 µM
MDA-N
  TGI: > 100 µM
CCRF-CEM leukemia
  TGI: > 100 µM
HOP-92 NSCLC
  TGI: > 100 µM
COLO 205 colon
  TGI: > 100 µM
KM12 colon
  TGI: > 100 µM
TK-10 renal
  TGI: > 100 µM
RXF 393 renal
  TGI: > 100 µM
SR leukemia
  TGI: 84.6 µM
HS 578T breast
  TGI: > 100 µM
U251 CNS
  TGI: > 100 µM
NCI-H460 lung
  TGI: > 100 µM
BT-549 breast
  TGI: > 100 µM
UACC-257 melanoma
  TGI: > 100 µM
A549 NSCLC
  TGI: > 100 µM
OVCAR-8 ovarian
  TGI: > 100 µM
A498 renal
  TGI: > 100 µM
PC-3 prostate
  TGI: > 100 µM
RPMI-8226 leukemia
  TGI: > 100 µM
OVCAR-5 ovarian
  TGI: > 100 µM
786-0 renal
  TGI: > 100 µM
UO-31 renal
  TGI: > 100 µM
NCI-H226 lung
  TGI: > 100 µM
ACHN renal
  TGI: > 100 µM
HL-60(TB) leukemia
  TGI: > 100 µM
HCT-116 colon
  TGI: > 100 µM
MALME-3M melanoma
  TGI: > 100 µM
SNB-75 CNS
  TGI: > 100 µM
HT29 colon
  TGI: > 100 µM
SK-MEL-28 melanoma
  TGI: > 100 µM
K-562 leukemia
  TGI: > 100 µM
EKVX NSCLC
  TGI: > 100 µM
SNB-19 CNS
  TGI: > 100 µM
SW-620 colon
  TGI: > 100 µM
HOP-62 NSCLC
  TGI: > 100 µM
SK-MEL-5 melanoma
  TGI: > 100 µM
HCC-2998 colon
  TGI: > 100 µM

## CC1(C)OC(CCC#N)CN1C(=O)OCc1ccccc1 (stereo not given)
IGROV1 ovarian
  TGI: > 100 µM
MOLT-4 leukemia
  TGI: > 100 µM
SK-OV-3 ovarian
  TGI: > 100 µM
UACC-62 melanoma
  TGI: > 100 µM
MCF7 breast
  TGI: > 100 µM
M14 melanoma
  TGI: > 100 µM
NCI-H23 lung
  TGI: > 100 µM
SK-MEL-2 melanoma
  TGI: > 100 µM
MDA-N
  TGI: > 100 µM
CCRF-CEM leukemia
  TGI: > 100 µM
HOP-92 NSCLC
  TGI: > 100 µM
COLO 205 colon
  TGI: > 100 µM
KM12 colon
  TGI: > 100 µM
LOX IMVI melanoma
  TGI: > 100 µM
TK-10 renal
  TGI: > 100 µM
RXF 393 renal
  TGI: > 100 µM
SR leukemia
  TGI: > 100 µM
NCI-H522 lung
  TGI: > 100 µM
DU-145 prostate
  TGI: > 100 µM
U251 CNS
  TGI: > 100 µM
NCI-H460 lung
  TGI: > 100 µM
BT-549 breast
  TGI: > 100 µM
UACC-257 melanoma
  TGI: > 100 µM
A549 NSCLC
  TGI: > 100 µM
OVCAR-8 ovarian
  TGI: > 100 µM
A498 renal
  TGI: > 100 µM
MDA-MB-231 breast
  TGI: > 100 µM
PC-3 prostate
  TGI: > 100 µM
RPMI-8226 leukemia
  TGI: > 100 µM
OVCAR-5 ovarian
  TGI: > 100 µM
786-0 renal
  TGI: > 100 µM
UO-31 renal
  TGI: > 100 µM
NCI-H226 lung
  TGI: > 100 µM
ACHN renal
  TGI: > 100 µM
SF-539 CNS
  TGI: > 100 µM
HL-60(TB) leukemia
  TGI: > 100 µM
HCT-116 colon
  TGI: > 100 µM
MALME-3M melanoma
  TGI: > 100 µM
HCT-15 colon
  TGI: > 100 µM
SNB-75 CNS
  TGI: > 100 µM
SF-295 CNS
  TGI: > 100 µM
OVCAR-4 ovarian
  TGI: > 100 µM
SK-MEL-28 melanoma
  TGI: > 100 µM
K-562 leukemia
  TGI: > 100 µM
EKVX NSCLC
  TGI: > 100 µM
OVCAR-3 ovarian
  TGI: > 100 µM
SNB-19 CNS
  TGI: > 100 µM
MDA-MB-435
  TGI: > 100 µM
NCI/ADR-RES ovarian
  TGI: > 100 µM
CAKI-1 renal
  TGI: > 100 µM
SW-620 colon
  TGI: > 100 µM
SK-MEL-5 melanoma
  TGI: > 100 µM
HCC-2998 colon
  TGI: > 100 µM

Reference: PubChem BioAssay (NCI)
